Assay results published in patent US10787459B2, “Bicyclic compounds as ATX inhibitors” (Hoffmann-La Roche Inc., priority 2015, dated 2020).
Like-named read-outs stand apart in the source and are kept apart here.

Target: ATX (human His-tagged) (Homo sapiens (Human), UniProt Q13822)
Assay: Human ATX enzyme inhibition assay (fluorescence quenching, MR121 substrate)
Assay type: biochemical
Conditions: 1 μM MR121 substrate, 30° C., pH 8.0
From the text: Human ATX Enzyme Inhibition Assay
Assay working solutions were made as follows:

SMILES | IC50 (ATX IC50, 30 nM ATX) [µM] | IC50 (30 nM ATX, read-out: ATX IC50) [µM]
CO[C@]12CN(C(=O)c3cc(OCC4CCOCC4)nc(C4CC4)c3)C[C@@H]1CN(C(=O)N1CCc3[nH]nnc3C1)C2 (single isomer, unassigned) [Example 3.00, trans-[3a-methoxy-5-(1,4,6,7-tetrahydrotriazolo[4,5-c]pyridine-5-carbonyl)-3,4,6,6a-tetrahydro-1H-pyrrolo[3,4-c]pyrrol-2-yl]-[2-cyclopropyl-6-(oxan-4-ylmethoxy)pyridin-4-yl]methanone] | 0.006 | –
CO[C@]12CN(C(=O)CCc3ccc(OC(F)(F)F)cc3)C[C@@H]1CN(C(=O)N1CCc3[nH]nnc3C1)C2 (relative stereo) [Example 2.01, trans-1-[3a-methoxy-5-(1,4,6,7-tetrahydrotriazolo[4,5-c]pyridine-5-carbonyl)-3,4,6,6a-tetrahydro-1H-pyrrolo[3,4-c]pyrrol-2-yl]-3-[4-(trifluoromethoxy)phenyl]propan-1-one] | – | 0.03
CO[C@]12CN(C(=O)c3cc(OCC4CCOCC4)nc(C4CC4)c3)C[C@@H]1CN(C(=O)N1CCc3[nH]nnc3C1)C2 (single isomer, unassigned) [Example 4.00, trans-[3a-methoxy-5-(1,4,6,7-tetrahydrotriazolo[4,5-c]pyridine-5-carbonyl)-3,4,6,6a-tetrahydro-1H-pyrrolo[3,4-c]pyrrol-2-yl]-[2-cyclopropyl-6-(oxan-4-ylmethoxy)pyridin-4-yl]methanone] | 0.01 | –
O=C(OCc1ccc(OC(F)(F)F)cc1)N1C[C@@H]2CN(C(=O)c3ccc4[nH]nnc4c3)C[C@@]2(F)C1 (relative stereo) [Example 1.00, trans-5-(1H-Benzotriazole-5-carbonyl)-3a-fluoro-hexahydro-pyrrolo[3,4-c]pyrrole-2-carboxylic acid 4-trifluoromethoxy-benzyl ester] | – | 0.005
CO[C@@]12CN(C(=O)c3cc(OCC4CCOCC4)nc(C4CC4)c3)C[C@H]1CN(C(=O)c1ccc3[nH]nnc3c1)C2 (relative stereo) [Example 1.03, trans-[5-[2-cyclopropyl-6-(oxan-4-ylmethoxy)pyridine-4-carbonyl]-3a-methoxy-3,4,6,6a-tetrahydro-1H-pyrrolo[3,4-c]pyrrol-2-yl]-(1H-benzotriazol-5-yl)methanone] | – | 0.013
CO[C@]12CN(C(=O)CCc3ccc(OC(F)(F)F)cc3)C[C@@H]1CN(C(=O)c1ccc3[nH]c(=O)n(C)c3c1)C2 (relative stereo) [Example 1.05, trans-5-[3a-methoxy-2-[3-[4-(trifluoromethoxy)phenyl]propanoyl]-3,4,6,6a-tetrahydro-1H-pyrrolo[3,4-c]pyrrole-5-carbonyl]-3-methyl-1H-benzimidazol-2-one] | – | 0.018
CO[C@@]12CN(C(=O)OCc3ccc(OC(F)(F)F)cc3)C[C@H]1CN(C(=O)c1ccc3[nH]nnc3c1)C2 (single isomer, unassigned) [Example 4.03, (+)-trans-5-(1H-benzotriazole-5-carbonyl)-3a-methoxy-hexahydro-pyrrolo[3,4-c]pyrrole-2-carboxylic acid 4-trifluoromethoxy-benzyl ester] | – | 0.007
CO[C@]12CN(C(=O)c3cc(OCC4CCOCC4)nc(C4CC4)c3)C[C@@H]1CN(C(=O)N1CCc3c(O)noc3C1)C2 (relative stereo) [Example 2.03, trans-[5-(3-hydroxy-5,7-dihydro-4H-[1,2]oxazolo[5,4-c]pyridine-6-carbonyl)-3a-methoxy-3,4,6,6a-tetrahydro-1H-pyrrolo[3,4-c]pyrrol-2-yl]-[2-cyclopropyl-6-(oxan-4-ylmethoxy)pyridin-4-yl]methanone] | – | 0.018
C[C@@]12CN(C(=O)OCc3ccc(OC(F)(F)F)cc3)C[C@H]1CN(C(=O)c1ccc3[nH]nnc3c1)C2 (single isomer, unassigned) [Example 3.02, (+)-trans-5-(1H-benzotriazole-5-carbonyl)-3a-methyl-hexahydro-pyrrolo[3,4-c]pyrrole-2-carboxylic acid 4-trifluoromethoxy-benzyl ester] | – | 0.012
CO[C@]12CN(C(=O)OCc3ccc(OC(F)(F)F)cc3)C[C@@H]1CN(C(=O)c1ccc3[nH]nnc3c1)C2 (relative stereo) [Example 1.01, trans-5-(1H-benzotriazole-5-carbonyl)-3a-methoxy-hexahydro-pyrrolo[3,4-c]pyrrole-2-carboxylic acid 4-trifluoromethoxy-benzyl ester] | – | 0.012
C[C@@]12CN(C(=O)OCc3ccc(OC(F)(F)F)cc3)C[C@H]1CN(C(=O)c1ccc3[nH]nnc3c1)C2 (single isomer, unassigned) [Example 4.02, (−)-trans-5-(1H-benzotriazole-5-carbonyl)-3a-methyl-hexahydro-pyrrolo[3,4-c]pyrrole-2-carboxylic acid 4-trifluoromethoxy-benzyl ester] | – | 0.006
C[C@]12CN(C(=O)OCc3ccc(OC(F)(F)F)cc3)C[C@@H]1CN(C(=O)c1ccc3[nH]nnc3c1)C2 (relative stereo) [Example 1.04, trans-5-(1H-benzotriazole-5-carbonyl)-3a-methyl-hexahydro-pyrrolo[3,4-c]pyrrole-2-carboxylic acid 4-trifluoromethoxy-benzyl ester] | – | 0.013
CO[C@]12CN(C(=O)CCc3ccc(OC(F)(F)F)cc3)C[C@@H]1CN(C(=O)N1CCc3c(O)noc3C1)C2 (relative stereo) [Example 2.02, trans-1-[5-(3-hydroxy-5,7-dihydro-4H-[1,2]oxazolo[5,4-c]pyridine-6-carbonyl)-3a-methoxy-3,4,6,6a-tetrahydro-1H-pyrrolo[3,4-c]pyrrol-2-yl]-3-[4-(trifluoromethoxy)phenyl]propan-1-one] | – | 0.12
CO[C@@]12CN(C(=O)c3cc(OCC4CCOCC4)nc(C4CC4)c3)C[C@H]1CN(C(=O)N1CCc3c(O)noc3C1)C2 (single isomer, unassigned) [Example 4.01, trans-[5-(3-hydroxy-5,7-dihydro-4H-[1,2]oxazolo[5,4-c]pyridine-6-carbonyl)-3a-methoxy-3,4,6,6a-tetrahydro-1H-pyrrolo[3,4-c]pyrrol-2-yl]-[2-cyclopropyl-6-(oxan-4-ylmethoxy)pyridin-4-yl]methanone] | – | 0.008
CO[C@@]12CN(C(=O)OCc3ccc(OC(F)(F)F)cc3)C[C@H]1CN(C(=O)c1ccc3[nH]nnc3c1)C2 (single isomer, unassigned) [Example 3.03, (−)-trans-5-(1H-benzotriazole-5-carbonyl)-3a-methoxy-hexahydro-pyrrolo[3,4-c]pyrrole-2-carboxylic acid 4-trifluoromethoxy-benzyl ester] | – | 0.019
CO[C@]12CN(C(=O)c3cc(OCC4CCOCC4)nc(C4CC4)c3)C[C@@H]1CN(C(=O)N1CCc3[nH]nnc3C1)C2 (racemic) [Example 2.00, trans-[3a-Methoxy-5-(1,4,6,7-tetrahydrotriazolo[4,5-c]pyridine-5-carbonyl)-3,4,6,6a-tetrahydro-1H-pyrrolo[3,4-c]pyrrol-2-yl]-[2-cyclopropyl-6-(oxan-4-ylmethoxy)pyridin-4-yl]methanone] | 0.012 | –
CO[C@@]12CN(C(=O)c3cc(OCC4CCOCC4)nc(C4CC4)c3)C[C@H]1CN(C(=O)c1ccc3[nH]c(=O)n(C)c3c1)C2 (relative stereo) [Example 1.06, trans-5-[5-[2-cyclopropyl-6-(oxan-4-ylmethoxy)pyridine-4-carbonyl]-3a-methoxy-3,4,6,6a-tetrahydro-1H-pyrrolo[3,4-c]pyrrole-2-carbonyl]-3-methyl-1H-benzimidazol-2-one] | – | 0.002
CO[C@]12CN(C(=O)CCc3ccc(OC(F)(F)F)cc3)C[C@@H]1CN(C(=O)c1ccc3[nH]nnc3c1)C2 (relative stereo) [Example 1.02, trans-1-[5-(1H-benzotriazole-5-carbonyl)-3a-methoxy-3,4,6,6a-tetrahydro-1H-pyrrolo[3,4-c]pyrrol-2-yl]-3-[4-(trifluoromethoxy)phenyl]propan-1-one] | – | 0.01
CO[C@@]12CN(C(=O)c3cc(OCC4CCOCC4)nc(C4CC4)c3)C[C@H]1CN(C(=O)N1CCc3c(O)noc3C1)C2 (single isomer, unassigned) [Example 3.01, trans-[5-(3-hydroxy-5,7-dihydro-4H-[1,2]oxazolo[5,4-c]pyridine-6-carbonyl)-3a-methoxy-3,4,6,6a-tetrahydro-1H-pyrrolo[3,4-c]pyrrol-2-yl]-[2-cyclopropyl-6-(oxan-4-ylmethoxy)pyridin-4-yl]methanone] | – | 0.02
